The text below walks through data of US6448294B1, “Biphenyl compounds and their use as oestrogenic agents” (Aventis Pharma S.A., priority 1996, dated 2002).

The target of the assay is T1, recombinant human oestrogen receptor (Homo sapiens, UniProt P03372).
T1 construct: made in house; host or cells: SF9 insect cells (ATCC CRL1711), baculovirus
T1 sequence (P03372 1-595): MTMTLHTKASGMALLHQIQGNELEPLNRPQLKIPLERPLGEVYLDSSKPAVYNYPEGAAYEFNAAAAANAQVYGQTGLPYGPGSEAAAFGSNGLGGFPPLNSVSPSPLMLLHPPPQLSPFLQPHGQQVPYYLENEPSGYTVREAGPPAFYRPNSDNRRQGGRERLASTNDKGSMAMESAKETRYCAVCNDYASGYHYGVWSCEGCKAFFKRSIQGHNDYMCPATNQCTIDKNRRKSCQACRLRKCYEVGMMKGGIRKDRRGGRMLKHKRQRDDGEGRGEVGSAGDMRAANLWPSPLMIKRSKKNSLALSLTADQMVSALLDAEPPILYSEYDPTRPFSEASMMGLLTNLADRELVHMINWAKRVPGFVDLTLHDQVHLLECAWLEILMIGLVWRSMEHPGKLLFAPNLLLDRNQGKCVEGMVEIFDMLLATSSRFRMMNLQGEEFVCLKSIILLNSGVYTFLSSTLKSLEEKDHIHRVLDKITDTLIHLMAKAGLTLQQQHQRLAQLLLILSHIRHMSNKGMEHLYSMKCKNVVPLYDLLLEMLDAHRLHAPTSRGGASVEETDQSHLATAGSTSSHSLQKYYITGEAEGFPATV
The experiment in a line: Human oestrogen receptor (HOR) competitive binding with tritiated oestradiol, relative bond affinity (RBA). As to conditions: RBA=100(CH)/(CX), incubation at 0° C. for 24 hours, cytosolic extract of SF9 cells. An excerpt: A cytosolic extract of SF9 cells containing the recombinant human oestrogen receptor is obtained by overexpression in an insect-Baculovirus cell system, according to the general methodology described by N. R. WEBB et al. (Journal of Methods in Cell and Molecular Biology, (1990) Vol.2 No. 4, 173-188) and the application of which is described for the expression of human hormonal receptors, for example the human glucocorticoid receptor (G. SRINIVASAN et al. Molecular Endocrinology (1990) vol 4 No. 2 209-216).
The BaculoGold Transfection Kit (PharMingen, reference 21000K) is used to generate the recombinant baculovirus containing the cDNA fragment described in the expression vector HEGO by L. TORA et al. (The EMBO Journal (1989) vol. 8 No. 7 1981-1986), containing the region coding for the wild-type human oestrogen receptor with a glycine in position 400. […]
The supernatant is incubated at 0° C. for 24 hours with a constant concentration (T) of tritiated oestradiol in the presence of increasing concentrations of either unlabelled oestradiol (0-1000×10^−9M), or of unlabelled product to be tested (0-25000×10^−9M). The concentration of bound tritiated oestradiol (B) is then measured in each incubate by the technique of adsorption with carbon dextran. […]
The relative bond affinity (RBA) of the test product is calculated by the equation: RBA=100(CH)/(CX).

In the case of `CN(C)CCOc1ccc(-c2c(-c3ccc(O)cc3)ccc3cc(O)ccc23)cc1` [Example 1, 5-[-4-[2-(Dimethylamino)ethoxy]phenyl] 6-(4-Hydroxyphenyl) 2-Naphthalenol], the “Relative bond affinity (RBA), HOR, oestradiol = 100, 24 hours” value is 28.

On to `Oc1ccc(-c2ccc3cc(O)ccc3c2Cl)cc1` [Example 2, 5-Chloro-6-(4-hydroxyphenyl)-2-naphthalenol], for which the “Relative bond affinity (RBA), HOR, oestradiol = 100, 24 hours” value is listed as 49.
